Source: patent publication US11242351B2, “Tricyclic inhibitors of the BCL6 BTB domain protein-protein interaction and uses thereof” (priority 2017, dated 2022)
Read-outs that look alike come from different tables or passages of the source.

Assays:
[1] = biological target: BCL6 BTB domain (biotin-thrombin-BCL6 amino acids 1-129) (Homo sapiens (Human), UniProt P41182); assay: Surface Plasmon Resonance (SPR) assay; type: binding; conditions: Biacore T200, single cycle kinetic analysis
Description: Surface Plasmon Resonance (SPR) Assay
SPR studies were performed using a Biacore™ T200 instrument (GE Health Sciences Inc.). […] The Biacore flow rate was set at 100 μl/min. […] Curve fitting and KD calculations were performed with the Biacore T200 Evaluation software (GE Health Sciences Inc).

[2] = system: BCL6 reporter construct in SuDHL4-3×BCL6-TK-Luc cells; assay: Cell-based luciferase assay (BCL6 reporter); conditions: 48 h, read-out: Luc IC50
Description: Cell-Based Luciferase Assay:
A BCL6 reporter construct containing three copies of the consensus BCL6 binding site, the TK promoter, and the firefly luciferase gene was stably expressed in SuDHL4 cells after lentivirus infection and selection with Blasticidin. SuDHL4-3×BCL6-TK-Luc cells were seeded into a Viewplate 384-well assay dish at 15,000 cells/well in […] (Alpha-MEM high glucose containing 10% FBS, 25 mM HEPES, […] GlutaMAX, 100 µg/mL Normocin, and […] Gentamycin, Invitrogen). A HP D300 digital dispenser was used to dose cells with DMSO or test compounds across a 10-point range of concentrations (high dose of 10 μM), and cultures were grown in a humidified 5% CO2 incubator at 37° C. After two days, plates were removed from the incubator and equilibrated to room temperature. An equal volume of neolite reporter gene assay reagent was added to each well, and samples were processed according to the manufacturer's instructions (Perkin Elmer). The luminescent signal was measured using an Envision plate reader equipped with a US-Luminescence detector.

Karpas422 cells = assay: Tumor cell growth inhibition assay; type: cell-based; conditions: Homo sapiens, KARPAS-422, 144 h, read-out: GI Karpas EC50
Description: Tumor Cell Growth Inhibition Assay:
Karpas422 cells were seeded into a 96-well plate at 2,000 cells/well in 150 μl medium (Alpha-MEM containing 10% FBS, […] Normocin, and […] Gentamycin, Invitrogen). A HP D300 digital dispenser was used to dose cells with DMSO or test compounds across a 10-point range of concentrations (high dose of 5 μM), and cultures were grown in a humidified 5% CO2 incubator at 37° C. After six days, plates were removed from incubator and equilibrated to room temperature. An equal volume of ATPlite assay reagent was added to each well, and samples were processed according to the manufacturer's instructions (Perkin Elmer). The luminescent signal was measured using an Envision plate reader equipped with a US-Luminescence detector.

[3] = SuDHL4-3×BCL6-TK-Luc cells, two days
[4] = Karpas422 cells, six days, ATPlite

| SMILES | Kd [1] [nM] | IC50 [2] [nM] | EC50 (Karpas422 cells) [nM] | IC50 [2, 3] [nM] | EC50 (Karpas422 cells; [4]) [nM] |
| --- | --- | --- | --- | --- | --- |
| C[C@H]1CNCCN1c1cc(NC(=O)Cn2cc(-c3cc(C(N)=O)c(O)c4c3OCO4)c3c(=O)n4c(nc32)CC(C)(C)C4)c(Cl)c(F)n1 [I-96, (S)-7-(1-(2-((3-chloro-2-fluoro-6-(2-methyl-piperazin-1-yl)pyridin-4-yl)amino)-2-oxo-ethyl)-7,7-dimethyl-4-oxo-4,6,7,8-tetrahydro-1H-dipyrrolo[1,2-a:2′,3′-d]pyrimidin-3-yl)-4-hydroxybenzo[d][1,3] dioxole-5-carboxamide] | 0.96 | 17.5 | 14.2 |  |  |
| CC1Cc2nc3c(c(-c4cc(C(N)=O)c(O)c(F)c4F)cn3CC(=O)Nc3cc(N4CCOC[C@@H]4C)nc(F)c3Cl)c(=O)n2C1 (stereo partly drawn) [I-64, 5-(1-(2-((3-chloro-2-fluoro-6-((S)-3-methylmorpholino)pyridin-4-yl)amino)-2-oxoethyl)-7-methyl-4-oxo-4,6,7,8-tetrahydro-1H-dipyrrolo [1,2-a:2′,3′-d]pyrimidin-3-yl)-3,4-difluoro-2-hydroxybenzamide] | 27.4 |  |  | 380 | 174 |
| C[C@H]1COCCN1c1cc(NC(=O)Cn2cc(-c3cc(C(N)=O)c(O)c(F)c3F)c3c(=O)n4c(nc32)CCCC4)c(Cl)c(F)n1 [I-42, (S)-5-(1-(2-((3-chloro-2-fluoro-6-(3-methyl-morpholino)pyridin-4-yl)amino)-2-oxoethyl)-4-oxo-1,4,6,7,8,9-hexahydropyrido [1,2-a]pyrrolo[2,3-d]pyrimidin-3-yl)-3,4-difluoro-2-hydroxy-benzamide] | 29 |  |  | 407 | 331 |
| CN1CCN(c2cc(NC(=O)Cn3cc(-c4cc(C(N)=O)c(O)c(F)c4F)c4c(=O)n5c(nc43)CCC5)c(Cl)cn2)CC1 [I-36, 5-(1-(2-((5-chloro-2-(4-methylpiperazin-1-yl)pyridin-4-yl)amino)-2-oxoethyl)-4-oxo-4,6,7,8-tetrahydro-1H-dipyrrolo[1,2-a:2′,3′-d]pyrimidin-3-yl)-3,4-difluoro-2-hydroxy-benzamide] | 23.2 | 701 | 480 |  |  |
| C[C@H](C1CC1)N1CCN(c2cc(NC(=O)Cn3cc(-c4cc(C(N)=O)c(O)c(F)c4F)c4c(=O)n5c(nc43)CCC5)c(Cl)c(F)n2)[C@@H](C)C1 [I-39, 5-(1-(2-((3-chloro-6-((S)-4-((R)-1-cyclo-propylethyl)-2-methyl-piperazin-1-yl)-2-fluoropyridin-4-yl)amino)-2-oxoethyl)-4-oxo-4,6,7,8-tetrahydro-1H-dipyrrolo[1,2-a:2′,3′-d]pyrimidin-3-yl)-3,4-difluoro-2-hydroxy-benzamide] | 34.9 |  |  | 210 | 384 |
| CC1Cc2nc3c(c(-c4cc(Cl)c(O)c(C(N)=O)c4)cn3CC(=O)Nc3cc(N4CCN(C)C[C@@H]4C)nc(F)c3Cl)c(=O)n2C1 (stereo partly drawn) [I-65, 3-chloro-5-(1-(2-((3-chloro-6-((S)-2,4-dimethylpiperazin-1-yl)-2-fluoropyridin-4-yl)amino)-2-oxo-ethyl)-7-methyl-4-oxo-4,6,7,8-tetra-hydro-1H-dipyrrolo [1,2-a:2′,3′-d]pyrimi-din-3-yl)-2-hydroxy-benzamide] | 6.28 |  |  | 46.8 | 42.1 |
| C[C@H]1COCCN1c1cc(NC(=O)Cn2cc(-c3cc(Cl)c(O)c(C(N)=O)c3)c3c(=O)n4c(nc32)CCC4)c(Cl)c(F)n1 [I-62, (S)-3-chloro-5-(1-(2-((3-chloro-2-fluoro-6-(3-methylmorpho-lino)pyridin-4-yl)amino)-2-oxoethyl)-4-oxo-4,6,7,8-tetra-hydro-1H-dipyrrolo [1,2-a:2′,3′-d]pyrimi-din-3-yl)-2-hydroxybenzamide] | 7.17 |  |  | 78.5 | 31.2 |
| COc1c(O)c(C(N)=O)cc(-c2cn(CC(=O)Nc3cc(N4CCN(C)C[C@@H]4C)nc(F)c3Cl)c3nc4n(c(=O)c23)CCC4)c1F [I-15, (S)-5-(1-(2-((3-chloro-6-(2,4-dimethylpiperazin-1-yl)-2-fluoropyridin-4-yl)amino)-2-oxoethyl)-4-oxo-4,6,7,8-tetrahydro-1H-dipyrrolo[1,2-a:2′,3′-d]pyrimidin-3-yl)-4-fluoro-2-hydroxy-3-methoxybenzamide] | 34.1 | 374 |  |  |  |
| NC(=O)c1cc(-c2cn(CC(=O)Nc3cc(N4CCCC4)nc(F)c3Cl)c3nc4n(c(=O)c23)CCC4)cc(F)c1O [I-76, 5-(1-(2-((3-chloro-2-fluoro-6-(pyrrolidin-1-yl)pyridin-4-yl)amino)-2-oxoethyl)-4-oxo-4,6,7,8-tetrahydro-1H-dipyrrolo[1,2-a:2′,3′-d]pyrimidin-3-yl)-3-fluoro-2-hydroxy-benzamide] | 3.02 |  |  | 85.1 | 92.8 |
| C[C@H]1CN(C)CCN1c1cc(NC(=O)Cn2cc(-c3cc(C(N)=O)c(O)c4c3OCO4)c3c(=O)n4c(nc32)COCC4)c(Cl)c(F)n1 [I-94, (S)-7-(1-(2-((3-chloro-6-(2,4-dimethylpipera-zin-1-yl)-2-fluoro-pyridin-4-yl)amino)-2-oxoethyl)-4-oxo-4,6,7,9-tetrahydro-1H-pyrrolo[2′,3′:4,5]pyri-mido[2,1-c][1,4]oxazin-3-yl)-4-hydroxybenzo [d][1,3]dioxole-5-carboxamide] | 1.33 |  |  | 28.3 | 17.8 |
| C[C@H]1CN(CC2(C)CC2)CCN1c1cc(NC(=O)Cn2cc(-c3cc(C(N)=O)c(O)c(F)c3F)c3c(=O)n4c(nc32)CCC4)c(Cl)cn1 [I-9, (S)-5-(1-(2-((5-chloro-2-(2-methyl-4-((1-methyl-cyclopropyl)methyl)piperazin-1-yl)pyridin-4-yl)amino)-2-oxoethyl)-4-oxo-4,6,7,8-tetrahydro-1H-dipyrrolo[1,2-a:2′,3′-d]pyrimidin-3-yl)-3,4-difluoro-2-hydroxy-benzamide] | 56.8 |  |  | 743 | 692 |
| C[C@H]1COCCN1c1cc(NC(=O)Cn2cc(-c3cc(C(N)=O)c(O)c(F)c3F)c3c(=O)n4c(nc32)CCC4)c(Cl)c(F)n1 [I-5, (S)-5-(1-(2-((3-chloro-2-fluoro-6-(3-methyl-morpholino)pyridin-4-yl)amino)-2-oxoethyl)-4-oxo-4,6,7,8-tetrahydro-1H-dipyrrolo[1,2-a:2′,3′-d]pyrimidin-3-yl)-3,4-difluoro-2-hydroxy-benzamide] | 11.7 | 167 | 124 |  |  |
| CCN1CCN(c2cc(NC(=O)Cn3cc(-c4cc(C(N)=O)c(O)c(Cl)c4F)c4c(=O)n5c(nc43)CCC5)c(Cl)c(F)n2)[C@@H](C)C1 [I-28, (S)-3-chloro-5-(1-(2-((3-chloro-6-(4-ethyl-2-methylpiperazin-1-yl)-2-fluoropyridin-4-yl)amino)-2-oxoethyl)-4-oxo-4,6,7,8-tetra-hydro-1H-dipyrrolo [1,2-a:2′,3′-d]pyri-midin-3-yl)-4-fluoro-2-hydroxybenzamide] | 135 |  |  | 1340 | 779 |
| CC1Cc2nc3c(c(-c4cc(F)c(O)c(C(N)=O)c4)cn3CC(=O)Nc3cc(N4CCN(C)C[C@@H]4C)nc(F)c3Cl)c(=O)n2C1 (stereo partly drawn) [I-78, 5-(1-(2-((3-chloro-6-((S)-2,4-dimethyl-piperazin-1-yl)-2-fluoropyridin-4-yl)amino)-2-oxoethyl)-7-methyl-4-oxo-4,6,7,8-tetrahydro-1H-dipyrrolo[1,2-a:2′,3′-d]pyrimidin-3-yl)-3-fluoro-2-hydroxy-benzamide] | 2.03 |  |  | 30.7 | 21 |
| CN(C)c1cc(NC(=O)Cn2cc(-c3cc(F)c(O)c(C(N)=O)c3)c3c(=O)n4c(nc32)CCC4)c(Cl)c(F)n1 [I-80, 5-(1-(2-((3-chloro-6-(dimethylamino)-2-fluoropyridin-4-yl)amino)-2-oxoethyl)-4-oxo-4,6,7,8-tetrahydro-1H-dipyrrolo[1,2-a:2′,3′-d]pyrimidin-3-yl)-3-fluoro-2-hydroxy-benzamide] | 3.83 |  |  | 87.2 | 70.1 |
| COc1c(O)c(C(N)=O)cc(-c2cn(CC(=O)Nc3cc(N4CCOC[C@@H]4C)nc(F)c3Cl)c3nc4n(c(=O)c23)CCC4)c1F [I-16, (S)-5-(1-(2-((3-chloro-2-fluoro-6-(3-methyl-morpholino)pyridin-4-yl)amino)-2oxoethyl)-4-oxo-4,6,7,8-tetra-hydro-1H-dipyrrolo [1,2-a:2′,3′-d]pyri-midin-3-yl)-4-fluoro-2-hydroxy-3-methoxy-benzamide] |  | 510 |  |  |  |
